Laboratory results published in the NIST ThermoML archive (doi:10.1007/s10765-007-0223-x).
± gives the expanded uncertainty stated by the source.

Test: xn = mol fraction of the nth substance listed
Settings: 101 kPa, Liquid; for speed of sound: Single path-length method

COC(C)(C)C [2-methoxy-2-methylpropane] + CC(C)CC(C)(C)C
Settings | mass density [kg/m3] | speed of sound [m/s]
288.15 K, x1 = 0.049 | 697.553 ± 0.62 | 1121.8 ± 2.1
288.15 K, x1 = 0.091 | 698.921 ± 0.62 | 1119.5 ± 2.1
288.15 K, x1 = 0.197 | 702.655 ± 0.62 | 1113.9 ± 2.1
288.15 K, x1 = 0.296 | 706.427 ± 0.61 | 1108.7 ± 2.1
288.15 K, x1 = 0.394 | 710.506 ± 0.6 | 1103.7 ± 2.1
288.15 K, x1 = 0.507 | 715.659 ± 0.6 | 1098.5 ± 2.1
288.15 K, x1 = 0.603 | 720.373 ± 0.59 | 1094.9 ± 2.1
288.15 K, x1 = 0.7 | 725.737 ± 0.58 | 1090.9 ± 2.1
288.15 K, x1 = 0.79 | 731.164 ± 0.58 | 1087.8 ± 2.1
288.15 K, x1 = 0.898 | 738.236 ± 0.57 | 1084.6 ± 2.1
288.15 K, x1 = 0.951 | 742.111 ± 0.56 | 1083.4 ± 2.1
288.15 K, x1 = 1 | 744.861 ± 0.55 | 1082.1 ± 2.1
290.65 K, x1 = 0.049 | 695.495 ± 0.63 | 1111.2 ± 2.1
290.65 K, x1 = 0.091 | 696.847 ± 0.62 | 1108.8 ± 2.1
290.65 K, x1 = 0.197 | 700.534 ± 0.62 | 1103.3 ± 2.1
290.65 K, x1 = 0.296 | 704.261 ± 0.61 | 1097.9 ± 2.1
290.65 K, x1 = 0.394 | 708.292 ± 0.61 | 1092.9 ± 2.1
290.65 K, x1 = 0.507 | 713.386 ± 0.6 | 1087.6 ± 2.1
290.65 K, x1 = 0.603 | 718.048 ± 0.59 | 1083.9 ± 2.1
290.65 K, x1 = 0.7 | 723.357 ± 0.59 | 1079.8 ± 2.1
290.65 K, x1 = 0.79 | 728.726 ± 0.58 | 1076.7 ± 2.1
290.65 K, x1 = 0.898 | 735.725 ± 0.57 | 1073.3 ± 2.1
290.65 K, x1 = 0.951 | 739.564 ± 0.56 | 1072 ± 2.1
290.65 K, x1 = 1 | 742.259 ± 0.56 | 1070.6 ± 2.1
293.15 K, x1 = 0.049 | 693.424 ± 0.63 | 1100.6 ± 2.1
293.15 K, x1 = 0.091 | 694.76 ± 0.63 | 1098.2 ± 2.1
293.15 K, x1 = 0.197 | 698.399 ± 0.62 | 1092.6 ± 2.1
293.15 K, x1 = 0.296 | 702.081 ± 0.62 | 1087.1 ± 2.1
293.15 K, x1 = 0.394 | 706.064 ± 0.61 | 1082 ± 2.1
293.15 K, x1 = 0.507 | 711.097 ± 0.6 | 1076.7 ± 2.1
293.15 K, x1 = 0.603 | 715.704 ± 0.6 | 1072.9 ± 2.1
293.15 K, x1 = 0.7 | 720.957 ± 0.59 | 1068.7 ± 2.1
293.15 K, x1 = 0.79 | 726.269 ± 0.58 | 1065.5 ± 2.1
293.15 K, x1 = 0.898 | 733.196 ± 0.57 | 1062 ± 2.1
293.15 K, x1 = 0.951 | 736.997 ± 0.57 | 1060.6 ± 2.1
293.15 K, x1 = 1 | 739.654 ± 0.56 | 1059.1 ± 2.1
295.65 K, x1 = 0.049 | 691.351 ± 0.63 | 1090 ± 2.1
295.65 K, x1 = 0.091 | 692.668 ± 0.63 | 1087.5 ± 2.1
295.65 K, x1 = 0.197 | 696.259 ± 0.62 | 1081.8 ± 2.1
295.65 K, x1 = 0.296 | 699.893 ± 0.62 | 1076.2 ± 2.1
295.65 K, x1 = 0.394 | 703.829 ± 0.61 | 1071.1 ± 2.1
295.65 K, x1 = 0.507 | 708.799 ± 0.61 | 1065.6 ± 2.1
295.65 K, x1 = 0.603 | 713.354 ± 0.6 | 1061.7 ± 2.1
295.65 K, x1 = 0.7 | 718.545 ± 0.59 | 1057.5 ± 2.1
295.65 K, x1 = 0.79 | 723.8 ± 0.59 | 1054.2 ± 2.1
295.65 K, x1 = 0.898 | 730.656 ± 0.58 | 1050.5 ± 2.1
295.65 K, x1 = 0.951 | 734.419 ± 0.57 | 1049 ± 2.1
295.65 K, x1 = 1 | 737.036 ± 0.56 | 1047.8 ± 2.1
298.15 K, x1 = 0.049 | 689.271 ± 0.64 | 1079.4 ± 2.1
298.15 K, x1 = 0.091 | 690.571 ± 0.63 | 1076.9 ± 2.1
298.15 K, x1 = 0.197 | 694.113 ± 0.63 | 1071.2 ± 2.1
298.15 K, x1 = 0.296 | 697.7 ± 0.62 | 1065.5 ± 2.1
298.15 K, x1 = 0.394 | 701.586 ± 0.62 | 1060.2 ± 2.1
298.15 K, x1 = 0.507 | 706.495 ± 0.61 | 1054.7 ± 2.1
298.15 K, x1 = 0.603 | 710.995 ± 0.6 | 1050.7 ± 2.1
298.15 K, x1 = 0.7 | 716.128 ± 0.6 | 1046.4 ± 2.1
298.15 K, x1 = 0.79 | 721.323 ± 0.59 | 1042.9 ± 2.1
298.15 K, x1 = 0.898 | 728.107 ± 0.58 | 1039.2 ± 2.1
298.15 K, x1 = 0.951 | 731.831 ± 0.57 | 1037.6 ± 2.1
298.15 K, x1 = 1 | 734.406 ± 0.57 | 1036.6 ± 2.1
300.65 K, x1 = 0.049 | 687.187 ± 0.64 | 1068.9 ± 2.1
300.65 K, x1 = 0.091 | 688.468 ± 0.64 | 1066.3 ± 2.1
300.65 K, x1 = 0.197 | 691.962 ± 0.63 | 1060.5 ± 2.1
300.65 K, x1 = 0.296 | 695.502 ± 0.63 | 1054.7 ± 2.1
300.65 K, x1 = 0.394 | 699.338 ± 0.62 | 1049.4 ± 2.1
300.65 K, x1 = 0.507 | 704.182 ± 0.61 | 1043.8 ± 2.1
300.65 K, x1 = 0.603 | 708.63 ± 0.61 | 1039.7 ± 2.1
300.65 K, x1 = 0.7 | 713.701 ± 0.6 | 1035.2 ± 2.1
300.65 K, x1 = 0.79 | 718.837 ± 0.59 | 1031.7 ± 2.1
300.65 K, x1 = 0.898 | 725.547 ± 0.58 | 1027.9 ± 2.1
300.65 K, x1 = 0.951 | 729.232 ± 0.58 | 1026.2 ± 2.1
300.65 K, x1 = 1 | 731.766 ± 0.57 | 1025.4 ± 2.1
303.15 K, x1 = 0.049 | 685.097 ± 0.64 | 1058.4 ± 2.1
303.15 K, x1 = 0.091 | 686.359 ± 0.64 | 1055.8 ± 2.1
303.15 K, x1 = 0.197 | 689.806 ± 0.64 | 1050 ± 2.1
303.15 K, x1 = 0.296 | 693.296 ± 0.63 | 1044 ± 2.1
303.15 K, x1 = 0.394 | 697.081 ± 0.62 | 1038.7 ± 2.1
303.15 K, x1 = 0.507 | 701.866 ± 0.62 | 1032.8 ± 2.1
303.15 K, x1 = 0.603 | 706.257 ± 0.61 | 1028.7 ± 2.1
303.15 K, x1 = 0.7 | 711.266 ± 0.6 | 1024.1 ± 2.1
303.15 K, x1 = 0.79 | 716.339 ± 0.6 | 1020.4 ± 2.1
303.15 K, x1 = 0.898 | 722.977 ± 0.59 | 1016.5 ± 2.1
303.15 K, x1 = 0.951 | 726.622 ± 0.58 | 1014.8 ± 2.1
303.15 K, x1 = 1 | 729.112 ± 0.58 | 1014 ± 2.1
305.65 K, x1 = 0.049 | – | 1048.1 ± 2.1
305.65 K, x1 = 0.091 | – | 1045.4 ± 2.1
305.65 K, x1 = 0.197 | – | 1039.5 ± 2.1
305.65 K, x1 = 0.296 | – | 1033.4 ± 2.1
305.65 K, x1 = 0.394 | – | 1028 ± 2.1
305.65 K, x1 = 0.507 | – | 1021.9 ± 2.1
305.65 K, x1 = 0.603 | – | 1017.7 ± 2.1
305.65 K, x1 = 0.7 | – | 1013 ± 2.1
305.65 K, x1 = 0.79 | – | 1009.2 ± 2.1
305.65 K, x1 = 0.898 | – | 1005.2 ± 2.1
305.65 K, x1 = 0.951 | – | 1003.4 ± 2.1
305.65 K, x1 = 1 | – | 1002.7 ± 2.1
